{"source": "patent US20220323490A1", "about": "“PREVENTION OF DISEASES IN HONEYBEES” (Arkema Inc., priority 2019, published 2022)", "key": {"[1]": {"tested_on": "honeybee (Apis mellifera) workers", "details": "for X3, best estimate of EC5 concentration (Molar hydrogen peroxide): cubic model solution; for EC5 (Percent): percent H2O2 calculated from X3; for Predicted LC50 Log10 Molar (±se) / Predicted LC50 (Molar) / Predicted LC50 (Percent): oral, in 2M sucrose; for Predicted LC50 Log10 Molar (±se): Probit analysis; for Predicted LC50 (Molar): inverse of log10 data; for Predicted LC50 (Percent): percent hydrogen peroxide", "protocol": "The twenty-four and forty-eight hour oral lethal concentration (LC50) of formulated hydrogen peroxide (HP) was determined for one-week and two-week old honeybee (Apis mellifera) workers fed a series of solutions of HP diluted in 2 Molar (M) sucrose.\nFive hydrogen peroxide (HP) solutions at 4.7, 3.7, 2.7, 1.7, 0.7 M HP in 2 Molar (M) sucrose, and a 0.00 M HP 2M sucrose solution were prepared using 35% food grade hydrogen peroxide, molecular grade sucrose (Sigma Aldrich, USA), and molecular grade water (Sigma Aldrich, USA).\nApproximately 200 bees were collected into several wooden cages, supplied with ad libitum HP-free 2M sucrose solution, water, and BeePro® supplemented pollen patty. Experimental trials commenced at seven and fourteen days after newly emerged honeybees were placed in cages.\nFollowing this, an EC5 was calculated by solving the cubic (sigmoidal) model for ‘x’ given an intercept term constrained to zero (concentration) and a ‘y’ value of 0.05."}, "[2]": {"assay": "Stability of hydrogen peroxide in sugar solution", "details": "ambient temperature"}, "[3]": {"details": "one-week old honeybees, 24 Hour"}, "[4]": {"details": "one-week old honeybees, 48 Hour"}, "[5]": {"details": "two-week old honeybees, 24 Hour"}, "[6]": {"details": "two-week old honeybees, 48 Hour"}}, "note": "Entries after “also recorded” stand apart in the source; their conditions may differ. Like-named read-outs stand apart in the source and are kept apart here.", "data": [{"compound": "OO", "note": "[hydrogen peroxide]", "values": [{"measurement": "Mean (±se) Mortality", "setting": "[1]; 0.7 Molar H2O2 in 2M sucrose, one-week old honeybees, 24 Hour", "value": "3.38 (1.38)"}, {"measurement": "Mean (±se) Mortality", "setting": "[1]; 0.7 Molar H2O2 in 2M sucrose, one-week old honeybees, 48 Hour", "value": "9.63 (2.23)"}, {"measurement": "Mean (±se) Mortality", "setting": "[1]; 0.7 Molar H2O2 in 2M sucrose, two-week old honeybees, 24 Hour", "value": "7.00 (2.19)"}, {"measurement": "Mean (±se) Mortality", "setting": "[1]; 0.7 Molar H2O2 in 2M sucrose, two-week old honeybees, 48 Hour", "value": "12.75 (1.96)"}, {"measurement": "Mean (±se) Mortality", "setting": "[1]; 1.7 Molar H2O2 in 2M sucrose, one-week old honeybees, 24 Hour", "value": "10.25 (1.42)"}, {"measurement": "Mean (±se) Mortality", "setting": "[1]; 1.7 Molar H2O2 in 2M sucrose, one-week old honeybees, 48 Hour", "value": "18.13 (1.06)"}, {"measurement": "Mean (±se) Mortality", "setting": "[1]; 1.7 Molar H2O2 in 2M sucrose, two-week old honeybees, 24 Hour", "value": "12.00 (2.32)"}, {"measurement": "Mean (±se) Mortality", "setting": "[1]; 1.7 Molar H2O2 in 2M sucrose, two-week old honeybees, 48 Hour", "value": "16.25 (1.50)"}, {"measurement": "Mean (±se) Mortality", "setting": "[1]; 2.7 Molar H2O2 in 2M sucrose, one-week old honeybees, 24 Hour", "value": "15.63 (1.19)"}, {"measurement": "Mean (±se) Mortality", "setting": "[1]; 2.7 Molar H2O2 in 2M sucrose, one-week old honeybees, 48 Hour", "value": "19.88 (1.63)"}, {"measurement": "Mean (±se) Mortality", "setting": "[1]; 2.7 Molar H2O2 in 2M sucrose, two-week old honeybees, 24 Hour", "value": "14.13 (2.12)"}, {"measurement": "Mean (±se) Mortality", "setting": "[1]; 2.7 Molar H2O2 in 2M sucrose, two-week old honeybees, 48 Hour", "value": "19.50 (1.00)"}, {"measurement": "Mean (±se) Mortality", "setting": "[1]; 3.7 Molar H2O2 in 2M sucrose, one-week old honeybees, 24 Hour", "value": "15.25 (1.70)"}, {"measurement": "Mean (±se) Mortality", "setting": "[1]; 3.7 Molar H2O2 in 2M sucrose, one-week old honeybees, 48 Hour", "value": "21.50 (0.96)"}, {"measurement": "Mean (±se) Mortality", "setting": "[1]; 3.7 Molar H2O2 in 2M sucrose, two-week old honeybees, 24 Hour", "value": "16.63 (1.92)"}, {"measurement": "Mean (±se) Mortality", "setting": "[1]; 3.7 Molar H2O2 in 2M sucrose, two-week old honeybees, 48 Hour", "value": "20.75 (0.53)"}, {"measurement": "Mean (±se) Mortality", "setting": "[1]; 4.7 Molar H2O2 in 2M sucrose, one-week old honeybees, 24 Hour", "value": "15.75 (1.53)"}, {"measurement": "Mean (±se) Mortality", "setting": "[1]; 4.7 Molar H2O2 in 2M sucrose, one-week old honeybees, 48 Hour", "value": "21.38 (0.99)"}, {"measurement": "Mean (±se) Mortality", "setting": "[1]; 4.7 Molar H2O2 in 2M sucrose, two-week old honeybees, 24 Hour", "value": "17.88 (1.51)"}, {"measurement": "Mean (±se) Mortality", "setting": "[1]; 4.7 Molar H2O2 in 2M sucrose, two-week old honeybees, 48 Hour", "value": "20.13 (1.36)"}, {"measurement": "honey bee mortality versus control group", "setting": "[1]; all tested concentrations (0.7-4.7 M HP in 2M sucrose), Wilcoxon multiple comparisons P<0.001", "value": "significantly greater than mortality of honeybees in control group"}, {"measurement": "X3, best estimate of EC5 concentration (Molar hydrogen peroxide)", "setting": "[1]; [3]", "value": 0.21, "unit": "Molar"}, {"measurement": "EC5 (Percent)", "setting": "[1]; [3]", "value": 0.57, "unit": "%"}, {"measurement": "X3, best estimate of EC5 concentration (Molar hydrogen peroxide)", "setting": "[1]; [4]", "value": 0.15, "unit": "Molar"}, {"measurement": "EC5 (Percent)", "setting": "[1]; [4]", "value": 0.41, "unit": "%"}, {"measurement": "Predicted LC50 Log10 Molar (±se)", "setting": "[1]; [3]", "value": "0.29 (0.02) Log10 Molar"}, {"measurement": "Predicted LC50 (Molar)", "setting": "[1]; [3]", "value": "1.95 (0.09) Molar"}, {"measurement": "Predicted LC50 (Percent)", "setting": "[1]; [3]", "value": "5.30 (0.25) Percent"}, {"measurement": "Predicted LC50 Log10 Molar (±se)", "setting": "[1]; [4]", "value": "−0.10 (0.03) Log10 Molar"}, {"measurement": "Predicted LC50 (Molar)", "setting": "[1]; [4]", "value": "0.79 (0.05) Molar"}, {"measurement": "Predicted LC50 (Percent)", "setting": "[1]; [4]", "value": "2.15 (0.14) Percent"}, {"measurement": "Predicted LC50 Log10 Molar (±se)", "setting": "[1]; [5]", "value": "0.15 (0.03) Log10 Molar"}, {"measurement": "Predicted LC50 (Molar)", "setting": "[1]; [5]", "value": "1.41 (0.10) Molar"}, {"measurement": "Predicted LC50 (Percent)", "setting": "[1]; [5]", "value": "3.84 (0.28) Percent"}, {"measurement": "Predicted LC50 Log10 Molar (±se)", "setting": "[1]; [6]", "value": "−0.25 (0.06) Log10 Molar"}, {"measurement": "Predicted LC50 (Molar)", "setting": "[1]; [6]", "value": "0.56 (0.08) Molar"}, {"measurement": "Predicted LC50 (Percent)", "setting": "[1]; [6]", "value": "1.52 (0.22) Percent"}, {"measurement": "X3, best estimate of EC5 concentration (Molar hydrogen peroxide)", "setting": "[1]; [5]", "value": 0.20, "unit": "Molar"}, {"measurement": "EC5 (Percent)", "setting": "[1]; [5]", "value": 0.54, "unit": "%"}, {"measurement": "X3, best estimate of EC5 concentration (Molar hydrogen peroxide)", "setting": "[1]; [6]", "value": 0.15, "unit": "Molar"}, {"measurement": "EC5 (Percent)", "setting": "[1]; [6]", "value": 0.41, "unit": "%"}, {"measurement": "Stability (degradation) of hydrogen peroxide in sugar solution", "setting": "[2]; 0.1% and 1.0% H2O2 in 50% (w/w) sucrose, over 7 weeks", "value": "No degradation; also recorded: stable in a sugar solution"}, {"measurement": "Hydrogen peroxide concentration in sugar solution", "setting": "[2]; nominal 0.1% H2O2 in 50% (w/w) sucrose, 10 days", "value": 0.134}, {"measurement": "Hydrogen peroxide concentration in sugar solution", "setting": "[2]; nominal 0.1% H2O2 in 50% (w/w) sucrose, 27 days", "value": 0.134}, {"measurement": "Hydrogen peroxide concentration in sugar solution", "setting": "[2]; nominal 0.1% H2O2 in 50% (w/w) sucrose, 51 days", "value": 0.130}, {"measurement": "Hydrogen peroxide concentration in sugar solution", "setting": "[2]; nominal 0.1% H2O2 in 50% (w/w) sucrose, time 0", "value": 0.134}, {"measurement": "Hydrogen peroxide concentration in sugar solution", "setting": "[2]; nominal 1.0% H2O2 in 50% (w/w) sucrose, 10 days", "value": 1.089}, {"measurement": "Hydrogen peroxide concentration in sugar solution", "setting": "[2]; nominal 1.0% H2O2 in 50% (w/w) sucrose, 27 days", "value": 1.058}, {"measurement": "Hydrogen peroxide concentration in sugar solution", "setting": "[2]; nominal 1.0% H2O2 in 50% (w/w) sucrose, 51 days", "value": 1.089}, {"measurement": "Hydrogen peroxide concentration in sugar solution", "setting": "[2]; nominal 1.0% H2O2 in 50% (w/w) sucrose, time 0", "value": 1.077}]}]}
